Columns and labels:
Assay type in all cases: biochemical
[1] = system: human pancreatic chymotrypsin; assay: Specificity assay, chymotrypsin; conditions: read-out: Chymotrypsin activity in the specificity assays (IC50)
Description: The specificities of compounds of the present invention were determined against a variety of serine proteases: human neutrophil elastase (HNE), porcine pancreatic elastase (PPE) and human pancreatic chymotrypsin and one cysteine protease: human liver cathepsin B. In all cases a 96-well plate format protocol using calorimetric p-nitroaniline (pNA) substrate specific for each enzyme was used as described previously (PCT Patent Application No. WO 00/09543) with some modifications to the serine protease assays. All enzymes were purchased from Sigma while the substrates were from Bachem.
Each assay included a 2 hr enzyme-inhibitor pre-incubation at room temperature followed by addition of substrate and hydrolysis to ˜30% conversion as measured on a Spectramax Pro microplate reader. Compound concentrations varied from 100 to 0.4 micromolar (“μM”) depending on their potency. […]
The percentage of inhibition was calculated using the formula: [1−((UVinh−UVblank)/(UVctl−UVblank))]×100 […]

[2] = target: T1, HCV NS3/4A protease complex, J4L6S strain (1b genotype) (Hepatitis C virus genotype 1b, UniProt O92972, C1454S/C1711G); assay: Recombinant HCV NS3/4A protease complex FRET peptide assay, J4L6S strain
T1 construct: DNA encoding the recombinant HCV NS3/4A protease complex (amino acids 1027 to 1711) for these strains; His tag (inferred from Ni-NTA purification and pET21b vector); made in house; host or cells: Escherichia coli BL21 (DE3)
T1 sequence (O92972 1027-1711 C1454S/C1711G, one chain of several): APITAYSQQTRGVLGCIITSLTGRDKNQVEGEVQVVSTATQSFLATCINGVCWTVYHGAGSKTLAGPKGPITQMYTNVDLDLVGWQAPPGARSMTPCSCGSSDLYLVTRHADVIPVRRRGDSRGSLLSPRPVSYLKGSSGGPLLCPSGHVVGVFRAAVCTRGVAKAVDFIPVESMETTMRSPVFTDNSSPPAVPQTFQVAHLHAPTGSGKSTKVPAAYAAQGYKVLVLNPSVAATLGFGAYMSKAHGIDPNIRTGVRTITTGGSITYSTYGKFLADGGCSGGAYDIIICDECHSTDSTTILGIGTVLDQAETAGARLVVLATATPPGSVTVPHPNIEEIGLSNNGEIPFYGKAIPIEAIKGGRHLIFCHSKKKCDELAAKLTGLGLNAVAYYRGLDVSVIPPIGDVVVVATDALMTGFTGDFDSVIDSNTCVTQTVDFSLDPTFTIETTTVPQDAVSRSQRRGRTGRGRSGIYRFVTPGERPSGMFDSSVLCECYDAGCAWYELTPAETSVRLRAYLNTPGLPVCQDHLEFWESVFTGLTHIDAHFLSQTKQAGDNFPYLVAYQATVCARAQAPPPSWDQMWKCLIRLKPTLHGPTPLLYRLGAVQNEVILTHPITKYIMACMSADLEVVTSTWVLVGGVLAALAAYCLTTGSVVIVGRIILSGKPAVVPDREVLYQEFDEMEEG
Source text: (§1) Recombinant HCV NS3/4A Protease Complex FRET Peptide Assay
(§2) The purpose of this in vitro assay was to measure the inhibition of HCV NS3 protease complexes, derived from the BMS strain, H77C strain or J416S strain, as described below, by compounds of the present invention. This assay provides an indication of how effective compounds of the present invention would be in inhibiting HCV proteolytic activity.
(§3) Serum from an HCV-infected patient was obtained from Dr. T. Wright, San Francisco Hospital. An engineered full-length cDNA (compliment deoxyribonucleic acid) template of the HCV genome (BMS strain) was constructed from DNA fragments obtained by reverse transcription-PCR (RT-PCR) of serum RNA (ribonucleic acid) and using primers selected on the basis of homology between other genotype 1a strains. From the determination of the entire genome sequence, a genotype 1a was assigned to the HCV isolate according to the classification of Simmonds et al. (See P Simmonds, K A Rose, S Graham, S W Chan, F McOmish, B C Dow, E A Follett, P L Yap and H Marsden, J. Clin. Microbiol., 31(6), 1493–1503 (1993)). […]

[3] = target: T2, HCV NS3/4A protease complex, H77C strain (1a genotype) (Hepatitis C virus genotype 1a, UniProt P27958, C1454S); assay: Recombinant HCV NS3/4A protease complex FRET peptide assay, H77C strain
T2 construct: DNA encoding the recombinant HCV NS3/4A protease complex (amino acids 1027 to 1711) for these strains; His tag (inferred from Ni-NTA purification and pET21b vector); made in house; host or cells: Escherichia coli BL21 (DE3)
T2 sequence (P27958 1027-1657 C1454S): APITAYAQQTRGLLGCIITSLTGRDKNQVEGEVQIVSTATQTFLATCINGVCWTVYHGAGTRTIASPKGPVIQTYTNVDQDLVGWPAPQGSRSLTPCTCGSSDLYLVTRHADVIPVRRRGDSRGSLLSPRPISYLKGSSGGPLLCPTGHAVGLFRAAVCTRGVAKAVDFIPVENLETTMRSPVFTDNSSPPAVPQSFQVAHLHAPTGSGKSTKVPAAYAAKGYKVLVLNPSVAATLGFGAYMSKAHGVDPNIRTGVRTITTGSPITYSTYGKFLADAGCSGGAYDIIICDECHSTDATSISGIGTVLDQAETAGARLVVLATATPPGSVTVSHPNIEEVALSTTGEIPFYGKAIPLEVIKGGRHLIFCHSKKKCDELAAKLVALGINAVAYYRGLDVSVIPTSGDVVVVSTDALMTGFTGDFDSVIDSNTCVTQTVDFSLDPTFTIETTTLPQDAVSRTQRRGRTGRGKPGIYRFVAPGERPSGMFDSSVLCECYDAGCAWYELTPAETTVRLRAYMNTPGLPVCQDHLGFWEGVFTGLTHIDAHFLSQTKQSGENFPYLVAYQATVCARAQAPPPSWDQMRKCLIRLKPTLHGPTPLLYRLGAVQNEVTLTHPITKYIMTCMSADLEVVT
T2 sequence (P27958 1658-1714 partner, looked up, stated change not applied): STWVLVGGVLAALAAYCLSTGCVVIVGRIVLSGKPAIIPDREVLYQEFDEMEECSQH
Source text: as §1, §2, §3

Compound `CC(C)(C)OC(=O)N[C@H]1CCCCC/C=C\[C@@H]2C[C@@]2(C(=O)NS(C)(=O)=O)NC(=O)[C@@H]2C[C@@H](Oc3nccc4ccccc34)CN2C1=O` [Compound 2, [18-(Isoquinolin-1-yloxy)-4-methanesulfonylaminocarbonyl-2,15-dioxo-3,16-diaza-tricyclo[14.3.0.0^4,6]nonadec-7-en-14-yl]-carbamic acid tert-butyl ester] has an IC50 [1] of over 100000 nM, an IC50 [2] of 1.9 nM and an IC50 [3] of 4.2 nM.

— US7173004B2, “Macrocyclic isoquinoline peptide inhibitors of hepatitis C virus” (Bristol-Myers Squibb Company, priority 2003, dated 2007)
